# According to US5614548A, “Quaternary amine containing ether or ester lipid derivatives and therapeutic compositions” (priority 1994, dated 1997):
# Read-outs that look alike come from different tables or passages of the source.
# Key:
# 77 cells = experiment: Cytostatic activity on 77 cells; type: cell-based, rat; conditions: for IC50: 77 cells, after controls doubled three times; for 77/KB: ratio of IC50 values ± standard error of the quotient
# Procedure: (§1) All cells were grown in Eagle's minimum essential medium supplemented with 10% fetal bovine serum with the exception of HL-60 and K562-4 cells which were grown in RPMI 1640 medium supplemented with 10% fetal bovine serum. The KB and MH1 C1 cells, from a human nasopharyngeal carcinoma and rat hepatoma, respectively, were from American Type Culture Collection. The ChaGo cells, a human lung carcinoma, was generously provided by Dr. A. H. Tashjian. The human promyeloblastic leukemia cells, K562-4 were kindly supplied by Dr. Bismarck Lozzio. HL-60 cells, a human promyelocytic leukemia, and P388 cells, a mouse leukemia, were obtained from Dr. Y.-C. Cheng. The 77 cells were put into culture by us by excising the 7777, Morris hepatoma from a rat graciously supplied by the late Dr. H. P. Morris.
# (§2) Cells were transferred or removed from monolayers for counting after a one or two minute incubation with 0.02% sodium ethylenediamine tetraacetate in phosphate-buffered saline to dislodge the cells. Flasks were seeded at a density of 1×10^3 cells per cm^2 or 2×10^4 per milliliter for suspension cultures. The HL-60 and K562-4 suspension cultures were used about 24 hours after seeding. The compounds to be tested were diluted to various concentrations and added to the monolayer cultures. All of the test compounds were dissolved in 10% dimethyl sulfoxide (DMSO) at concentrations that would give a final DMSO concentration of 0.1%. Control flasks contained 0.1% DMSO. Control cell replication was followed until approximately three doublings had occurred, and then all of the treated cells were counted.
# (§3) The KB cells represented cells with low alkyl cleavage activity (less than the detectable level of 0.1-0.2 units per milligram protein by our assay procedure) and the 77 cells represented cells similar to normal cells with relatively high alkyl cleavage activity (1.6 units per milligram of protein). Our value for the cleavage activity of cultured 77 cells agrees well with the value of 1.4 units per milligram of protein reported by Soodsma et al, Cancer Res. 30, 309 (1970), for freshly excised 7777 Morris hepatoma tissue. In further confirmation of our assay procedure, we obtained a value of 12.6±4.1 units per milligram of protein in excised rat liver compared to 7.3 units per milligram of protein in rat liver measured by Soodsma et al.
# KB cells = experiment: Cytostatic activity on KB cells; type: cell-based; conditions: Homo sapiens, read-out: IC50 KB
# Procedure: as §1, §2, §3
# Protein Kinase C = Protein Kinase C activity (32P incorporation into histone); type: biochemical, human (HL-60 cells)
# Procedure: PKC was prepared and assayed as described previously. See Daniel, L. W. et al., Biochem. Biophys. Res. Comm. 151, 291 (1988). In brief, HL-60 cells were grown in 75 milliliter flasks, harvested and washed with ice-cold normal saline. After centrifugation (600×g, 5 minutes, 4° Centigrade), the cell pellet was resuspended (20 mM Tris-HCl, pH 7.5, 2 mM EDTA, 10 mM EGTA, 50 mM 2-mercaptoethanol, 2 mM phenylmethylsulfonyl fluoride) and sonicated for 20 s with a stepped microprobe sonciator. Unbroken cells were removed by centrifugation as above and the supernatant centrifuged (65,000×g, 90 minutes, 4° Centigrade). The supernatant from this step (cytosol) was then fractionated on a 1×8 cm DEAE-Sephacel column after addition to sucrose to a final concentration of 10%. After equilibrating the column (20 mM Tris, pH 7.5, 0.2 mM EDTA, 0.2 mM EGTA, 50 mM 2-mercaptoethanol, 10% sucrose), the sample was loaded and unbound material was washed through with 40 milliliters of the equilibrating buffer. The PKC was eluted by a gradient from 0-0.5M NaCl in the buffer described above. Fractions of 1 milliliter were collected at 25 milliliters per hour and 0.05 milliliter aliquots assayed for PKC activity as described below. The fractions with the highest activity were pooled and used in further experiments.
# The assays were done at pH 7.5 in a total volume of 0.25 milliliter and all tubes contained 25 mM Tris, 10 mM MgCl2, 40 μg per milliliter histone, 10 μM ATP (including 1 μCi of [gamma-^32 P]-ATP), 0.1 mM CaCl2, 20 μg per milliliter phosphatidylserine, 0.05 milliliter of the PKC preparation and 2.5 μM of oleoylacetylglycerol (OAG). Enzymatic activity was determined as the incorporation of ^32 P from [gamma-^32 P]-ATP) into histone in the presence of Ca^2+, phosphatidylserine, and OAG. Reactions were initiated by the addition of the enzyme preparation and halted after 20 minutes at 30° Centigrade by the addition of 0.05 milliliters of bovine serum albumin (10 milligrams per milliliter) and 1 milliliter 25% ice-cold trichloroacetic acid. The tubes were kept on ice and then filtered in a millipore vacuum box using Millipore® HA filters and washed with 25% trichloroacetic acid. The radioactivity bound to the filters was determined by scintillation spectrometry in 5 milliliters Budget Solve®. […] The analog to be tested was dissolved in ethanol, and added directly into the reaction mixture before the addition of PKC. As a control, 0.1% ethanol was included in the samples with the enzyme but with no inhibitor.
# [1] = test system: HL60 human leukemia cell line; experiment: HL60 cell growth inhibition (trypan blue, 48 h); type: cell-based; conditions: Homo sapiens, HL-60, 48 h, HL60, 48 hours; read-out: ID50 (the source's name)
# Procedure: A number of the compounds disclosed herein have been tested against the HL60 human leukemia cell line to assess their cytotoxic potential. These analogs were investigated in parallel with ET-18-OMe which was used as the reference compound. The methodologies used in this investigation were the same as described in A. Noseda, M. Berens, C. Piantadosi, and E. J. Modest, Lipids 22, 878-883, 1987. In brief, HL60 cells at a concentration of […] were incubated in wells with one milliliter medium with the experimental drug in parallel with the same concentration of cells with ET-18-OMe (standard) or EtOH (control). After 48 hours of incubation the cells were counted using the trypan blue dye exclusion technique to determine the effect of the drug on cell growth. The experimental drug and ET-18-OMe were tested at the same concentrations, e.g., 10, 5, 2.5 and 1.25 μM.
# [2] = KB cells, after controls doubled three times
SMILES,IC50 (KB cells; [2]) [nM],Percent Protein Kinase C Activity Retained (Protein Kinase C; 1.25 μM) [%],Percent Protein Kinase C Activity Retained (Protein Kinase C; 2.5 μM) [%],Percent Protein Kinase C Activity Retained (Protein Kinase C; 5.0 μM) [%],Percent Protein Kinase C Activity Retained (Protein Kinase C; 10.0 μM) [%],Percent Protein Kinase C Activity Retained (Protein Kinase C; 20.0 μM) [%],Percent Protein Kinase C Activity Retained (Protein Kinase C; 40.0 μM) [%],other results
COC(COc1cccc2ccccc12)C[N+](C)(C)CCO (stereo not shown) [E],–,99,99,83,89,87,90,–
"CCCCCCCCCCCCCCCCCCSCC(C[N+](C)(C)CCCO)OC (racemic) [CJM 44, (±)-3-octadecylthio-2-methoxy-N,N-dimethyl-N-gamma-hydroxypropyl-1-propyl ammonium bromide]",–,–,–,–,–,–,–,IC50 [1]: 3400 nM
"CCCCCCCCCCCCOCC[N+](C)(C)CCO.[I-] [III, 2-dodecyloxy-N,N-dimethyl-N-β-hydroxyethyl-1-ethyl ammonium iodide]",780 ± 30,–,–,–,–,–,–,IC50 (77 cells): 4730 ± 870 nM; 77/KB (77 cells): 6.1 ± 1.15
"CCCCCCCCCCCCCCCCOCC(C[N+]1(C)CCC(O)CC1)OCC (racemic) [CJM PIPER, (±)-1-methyl-1-(3-hexadecyloxy-2-ethoxypropyl)-4-hydroxy piperidinium iodide]",–,–,–,–,–,–,–,IC50 [1]: 2800 nM
CC1(C)OCC(C[N+](C)(C)CCO)O1 (stereo not shown) [F],–,88,84,87,88,96,87,–
CCCCCCCCCCCCCCCCCC1OCC(C[N+](C)(C)CCCO)O1 (stereo not shown) [G],–,44,43,26,12,9,9,–
"C[N+](C)(CCO)CCOc1ccccc1 [IX, 2-Phenoxy-N,N-dimethyl-N-β-hydroxyethyl-1-ethyl ammonium iodide]",–,–,–,–,–,–,–,IC50 (KB cells; KB): > 100000 nM
CCCCCCCCCCCCCCCCSCC(C[N+](C)(C)CCO)OC (stereo not shown) [A],–,97,90,73,60,54,42,–
"CCCCCCCCCCCCCCCCOCCC[N+](C)(C)C [KLM 69, 3-hexadecyloxy-N,N,N-trimethyl-1-propyl ammonium bromide]",–,–,–,–,–,–,–,IC50 [1]: 1600 nM
CCCCCCCCCCCCCCCCSCC(C[N+](C)(C)C)OC (stereo not shown) [D],–,112,88,81,74,54,29,–
"CCCCCCCCCCCCCCCCCC(=O)OCC[N+](C)(C)CCO [II, 2-octadecanoyloxy-N,N-dimethyl-N-β-hydroxyethyl-1-ethyl ammonium iodide]",16000,–,–,–,–,–,–,–
"CCCCCCCCCCCCCCCCCC1OCC(C[N+](C)(C)CCCO)O1 (racemic) [CJM 60, (±)-N-(2-heptadecyl-1,3-dioxolan-4-yl)methyl-N,N-dimethyl-gamma-hydroxypropyl ammonium bromide]",–,–,–,–,–,–,–,IC50 [1]: 6500 nM
"CCCCCCCCCCCCCCCCOCCC[n+]1ccccc1 [KLM 70, 1-(3-hexadecyloxypropyl) pyridium bromide]",–,–,–,–,–,–,–,IC50 [1]: 800 nM

# Second part, led by results:
IC50 (KB cells; [2]) [nM],Percent Protein Kinase C Activity Retained (Protein Kinase C; 1.25 μM) [%],Percent Protein Kinase C Activity Retained (Protein Kinase C; 2.5 μM) [%],Percent Protein Kinase C Activity Retained (Protein Kinase C; 5.0 μM) [%],Percent Protein Kinase C Activity Retained (Protein Kinase C; 10.0 μM) [%],Percent Protein Kinase C Activity Retained (Protein Kinase C; 20.0 μM) [%],Percent Protein Kinase C Activity Retained (Protein Kinase C; 40.0 μM) [%],SMILES,other results
440 ± 110,–,–,–,–,–,–,"CCCCCCCCCCCCCCCCOCC[N+](C)(C)CCCCO.[I-] [VII, 2-hexadecyloxy-N,N-dimethyl-N-delta-hydroxybutyl-1-ethyl ammonium iodide]",IC50 (77 cells): 2270 ± 930 nM; 77/KB (77 cells): 5.2 ± 2.50
–,78,64,67,60,59,37,CCCCCCCCCCCCCCCCSCC(C[N+](C)(C)CCCO)OCC (stereo not shown) [C],–
330 ± 120,–,–,–,–,–,–,"CCCCCCCCCCCCCCCCOCC[N+](C)(C)CCO.[I-] [V, 2-hexadecyloxy-N,N-dimethyl-N-β-hydroxyethyl-1-ethyl ammonium iodide]",IC50 (77 cells): 1420 ± 500 nM; 77/KB (77 cells): 4.3 ± 2.15
260 ± 50,–,–,–,–,–,–,CCCCCCCCCCCCCCCCOCC(C[N+](C)(C)CCO)OC (stereo not shown) [XII],IC50 (77 cells): 1270 ± 410 nM; 77/KB (77 cells): 4.9 ± 1.84
320 ± 120,–,–,–,–,–,–,"CCCCCCCCCCCCCCOCC[N+](C)(C)CCO.[I-] [IV, 2-tetradecyloxy-N,N-dimethyl-N-β-hydroxyethyl-1-ethyl ammonium iodide]",IC50 (77 cells): 1530 ± 230 nM; 77/KB (77 cells): 4.8 ± 1.94
–,107,95,87,64,42,29,CCCCCCCCCCCCCCCCOCC(C[N+](C)(C)CCO)OC (stereo not shown) [H],–
